From patent publication US10849881B2, “Octahydro-cyclobuta[1,2-c;3,4-c′]dipyrrol-2-yl” (Hoffmann-La Roche Inc., priority 2013, dated 2020)

Molecular target: ATX (human His-tagged) (Homo sapiens (Human), UniProt Q13822)
Assay: Human ATX enzyme inhibition assay (fluorescence quenching, MR121 substrate)
Type: biochemical
Conditions: 30 nM ATX, 1 μM MR121 substrate, 30° C., pH 8.0
Experimental: Human ATX Enzyme Inhibition Assay
ATX inhibition was measured by a fluorescence quenching assay using a specifically labeled substrate analogue (MR121 substrate). To obtain this MR121 substrate, BOC and TBS protected 6-amino-hexanoic acid (R)-3-({2-[3-(2-{2-[2-(2-amino-ethoxy)-ethoxy]-ethoxy}-ethoxy)-propionylamino]-ethoxy}-hydroxy-phosphoryloxy)-2-hydroxy-propyl ester (Ferguson et al., Org Lett 2006, 8 (10), 2023) was labeled with MR121 fluorophore (CAS 185308-24-1, 1-(3-carboxypropyl)-11-ethyl-1,2,3,4,8,9,10,11-octahydro-dipyrido[3,2-b:2′,3′-i]phenoxazin-13-ium) on the free amine of the ethanolamine side and then, after deprotection, subsequently with tryptophan on the side of the aminohexanoic acid.
Assay working solutions were made as follows:
Assay buffer (50 mM Tris-HCl, 140 mM NaCl, 5 mM KCl, 1 mM CaCl2, 1 mM MgCl2, 0.01% Triton-X-100, pH 8.0;
ATX solution: ATX (human His-tagged) stock solution (1.08 mg/mL in 20 mM bicine, pH 8.5, 0.15 M NaCl, 10% glycerol, 0.3% CHAPS, 0.02% NaN3), diluted to 1.4-2.5× final concentration in assay buffer;
MR121 substrate solution: MR121 substrate stock solution (800 μM MR121 substrate in DMSO), diluted to 2-5× final concentration in assay buffer.
Test compounds (10 mM stock in DMSO, 8 μL) were obtained in 384 well sample plates (Corning Costar #3655) and diluted with 8 μL DMSO. Row-wise serial dilutions were made by transferring 8 μL cpd solution to the next row up to row O. The compound and control solutions were mixed five times and 2 μL were transferred to 384 well assay plates (Corning Costar #3702). Then, 15 μL of 41.7 nM ATX solution was added (30 nM final concentration), mixed five times and then incubated for 15 minutes at 30° C. 10 μL of MR121 substrate solution was added (1 μM final concentration), mixed 30 times and then incubated for 15 minutes at 30′C.

| IC50 [µM] | Structure (SMILES) |
| --- | --- |
| 1.41 | O=C(c1ccc2[nH]ccc2c1)N1C[C@@H]2[C@H](C1)[C@H]1CN(C(=O)c3ccc4[nH]nnc4c3)C[C@@H]21 [Example 1.043, [(3aS,3bS,6aR,6bR)-5-(1H-benzotriazole-5-carbonyl)-octahydro-cyclobuta[1,2-c;3,4-c′]dipyrrol-2-yl]-(1H-indol-5-yl)-methanone] |
| 0.014 | O=C(OCc1ccc(OC(F)(F)F)cc1)N1C[C@@H]2[C@H](C1)[C@H]1CN(C(=O)c3ccc4[nH]nnc4c3)C[C@@H]21 [Example 2, (3aR,3bS,6aR,6bS)-5-(1H-Benzotriazole-5-carbonyl)-octahydro-cyclobuta[1,2-c;3,4-c′]dipyrrole-2-carboxylic acid 4-trifluoromethoxy-benzyl Ester] |
| 0.017 | O=C(c1ccc2[nH]nnc2c1)N1C[C@@H]2[C@H](C1)[C@H]1CN(C(=O)c3ccc(C(F)(F)F)c(OCC4CC4)n3)C[C@@H]21 [Example 1.093, (1H-benzotriazol-5-yl)-[(3aS,3bR,6aS,6bR)-5-(6-cyclopropylmethoxy-5-trifluoromethyl-pyridine-2-carbonyl)-octahydro-cyclobuta[1,2-c;3,4-c′]dipyrrol-2-yl]-methanone] |
| 0.019 | CCOc1cc(C(=O)N2C[C@@H]3[C@H]4CN(C(=O)c5ccc6[nH]nnc6c5)C[C@H]4[C@@H]3C2)nc2cc(OC)ccc12 [Example 1.090, (1H-benzotriazol-5-yl)-[(3aS,3bR,6aS,6bR)-5-(4-ethoxy-7-methoxy-quinoline-2-carbonyl)-octahydro-cyclobuta[1,2-c;3,4-c′]dipyrrol-2-yl]-methanone] |
| 0.001 | O=C(c1ccc(-c2ccc(Cl)cc2)nc1)N1C[C@@H]2[C@H](C1)[C@H]1CN(C(=O)[C@@H]3CCc4[nH]nnc4C3)C[C@@H]21 [Example 1.063, [6-(4-chloro-phenyl)-pyridin-3-yl]-[(3aR,3bS,6aR,6bS)-5-((R)-4,5,6,7-tetrahydro-1H-benzotriazole-5-carbonyl)-octahydro-cyclobuta[1,2-c;3,4-c′]dipyrrol-2-yl]-methanone] |

Further lines, the compound ahead of its results:

| Structure (SMILES) | IC50 [µM] |
| --- | --- |
| O=C(c1ccc2[nH]nnc2c1)N1C[C@@H]2[C@H](C1)[C@H]1CN(C(=O)c3cc4ccccc4cn3)C[C@@H]21 [Example 1.039, [(3aR,3bS,6aR,6bS)-5-(1H-benzotriazole-5-carbonyl)-octahydro-cyclobuta[1,2-c;3,4-c′]dipyrrol-2-yl]-isoquinolin-3-yl-methanone] | 3.33 |
| N#CCn1c(C(=O)N2C[C@@H]3[C@H]4CN(C(=O)c5ccc6[nH]nnc6c5)C[C@H]4[C@@H]3C2)cc2ccccc21 [Example 1.036, {2-[(3aR,3bS,6aR,6bS)-5-(1H-benzotriazole-5-carbonyl)-octahydro-cyclobuta[1,2-c;3,4-c′]dipyrrole-2-carbonyl]-indol-1-yl}-acetonitrile] | 0.13 |
| CC(C)c1ccccc1OCC(=O)N1C[C@@H]2[C@H](C1)[C@H]1CN(C(=O)c3ccc4[nH]nnc4c3)C[C@@H]21 [Example 1.009, 1-[(3aR,3bS,6aR,6bS)-5-(1H-benzotriazole-5-carbonyl)-octahydro-cyclobuta[1,2-c;3,4-c′]dipyrrol-2-yl]-2-(2-isopropyl-phenoxy)-ethanone] | 0.008 |
| O=C(CCc1ccc(OC(F)(F)F)cc1)N1C[C@@H]2[C@H](C1)[C@H]1CN(C(=O)c3ccc4[nH]nnc4c3)C[C@@H]21 [Example 1.001, 1-[(3aS,3bR,6aS,6bR)-5-(1H-benzotriazole-5-carbonyl)-octahydro-cyclobuta[1,2-c;3,4-c′]dipyrrol-2-yl]-3-(4-trifluoromethoxy-phenyl)-propan-1-one] | 0.011 |
| O=C(/C=C/c1ccc(OC(F)(F)F)cc1)N1C[C@@H]2[C@H](C1)[C@H]1CN(C(=O)c3ccc4[nH]nnc4c3)C[C@@H]21 [Example 1.003, (E)-1-[(3aS,3bR,6aS,6bR)-5-(1H-benzotriazole-5-carbonyl)-octahydro-cyclobuta[1,2-c;3,4-c′]dipyrrol-2-yl]-3-(4-trifluoromethoxy-phenyl)-propenone] | 0.0085 |
